We go through two molecules from patent US9101567B2, “Suppression of cancer growth and metastasis using nordihydroguaiaretic acid derivatives with 7-hydroxystaurosporine” (The Johns Hopkins University, priority 2010, dated 2015).

Molecules are shown by their SMILES.

One data set has as its system LC3B-II. Description: Western blotting of LC3B-II (autophagy) in MCF-7 cells. In kind it is cell-based, human. The settings on record: MCF-7, 15 hrs; M4N 80 μM. As for the experimental part:
The sample volumes were adjusted by the total protein amount. Protein assay was performed by Bio-Rad Protein Assay (Bio-Rad Laboratories, Inc. Hercules, Calif.). The samples were resolved by the standard SDS-polyacrylamide gel electrophoresis and transferred to nitrocellulose membrane (Amersham Biosciences, Bjorkgatan, Sweden). The membranes were blocked with skim milk, and incubated with primary antibodies at 4° C. overnight and then with secondary antibody conjugated with horse radish peroxidase at room temperature for 2 hrs. The signals were detected by western blot chemiluminescence reagent plus (New England Nuclear Life Science Products, Boston, Mass.). The effect of […] on autophagy was examined using the western blotting for LC3B-II in the presence of Baflomycin A1 in MCF-7 and HepG2 cells (FIG. 4D).

For data set [1] the following is noted: human patients (reference 10); cited from earlier work.
For a further data set, the system named is HIF1α. Description: Western blotting of HIF1α in LNCaP cells under hypoxia. The format is cell-based, human. The settings on record: M4N 80 μM. The text has this:
LNCaP human prostate cancer, DU145 human prostate cancer, PC3 human prostate cancer, MCF-7 human breast cancer, MDA-MB-231 human breast cancer, MDA-MB-468 human breast cancer, HT29 human colon cancer, K562 human myelogenous leukaemia, HepG2 human hepatoma, Hep3B human hepatoma, and LN229 human glioblastoma cancer cell lines were purchased from American Type Culture Collection (Manassas, Va.). OC24 human ascites ovarian cancer cell line was a generous gift from Dr. XXX (Johns Hopkins University, MD). LNCaP cell line was cultured in RPMI1640 medium supplemented with glucose (14 mM), pyruvate (1 mM), and fetal bovine serum (FBS) (10%). DU145 cell line was cultured in MEM supplemented with non-essential amino acids, glucose (21 mM), pyruvate (1 mM), and FBS (10%). PC3 cell line was cultured in F-12K medium supplemented with FBS (10%). MCF-7 cell line was cultured in DMEM supplemented with FBS (10%). OC24 cell line was cultured in RPMI1640 medium supplemented with FBS (10%) as suspension culture. MDA-MB-231 and 468 cell lines were cultured in Leibovitz's L15 medium supplemented with FBS (10%) under air. HT29 cell line was cultured in DMEM supplemented with glucose (25 mM) and FBS (10%). K562 cell line was cultured in RPMI1640 supplemented with FBS (10%). […] The signals were detected by western blot chemiluminescence reagent plus (New England Nuclear Life Science Products, Boston, Mass.). […]
A general note: Immunoblotting shows a protein as a band on a membrane.

For another data set, the system named is BNIP3 mRNA. Description: Northern blotting of BNIP3 mRNA in LNCaP cells. In kind it is cell-based, human. The settings on record: 6 hr exposure to hypoxic condition, M4N 80 μM. As for the experimental part:
RNA was extracted from the cells by a Trizol Reagent (Invitrogen, Carlsbad, Calif.). Twentyfive μg of RNA per lane was dissolved on the 1.5% agarose gel containing 20 mM NaPO4 (pH 6.8) and 6% formaldehyde. RNA was transferred to a Nytran SPC membrane (Sigma-Aldrich, St. Louis, Mo.). The probe for BNIP3 was derived from a 199 bp fragment DNA generated by RT-PCR using a SuperScript III First-Strand Synthesis System for RT-PCR (Invitrogen, Carlsbad, Calif.), 5′-primer ‘[…]’ and 3′-primer ‘[…]’. The PCR fragment was cloned into a topo vector (Invitrogen, Carlsbad, Calif.). After midi-prep, the DNA fragment was excised from the vector and dissolved on the 2% agarose gel and purified. The extracted DNA fragment was labeled by ^32P-αdATP, Klenow fragment, and random hexagonal primers. After unincorporated ^32P-αdATP was removed by a Sephadex G-50 spun column, the labeled DNA fragment was used as a probe. After hybridization, the membrane was washed and autoradiographed to a BioMax MR film (Kodak, Rochester, N.Y.).
BNIP3 is a member of Bcl-2 family proteins which sends pro-apoptotic signal to mitochondria and induces mitochondrial membrane potential depolarization. […] This implies that BNIP3 is involved in autophagy as well as cell death. […]

The subject of another data set is caspase-7. Description: Western blotting of caspase-7 cleavage in MCF-7 cells. The settings on record: MCF-7, 17 hrs; M4N 80 μM, etoposide 20 μM, rapamycin 20 μM, UCN-01 5 μM. The format is cell-based, human. As to the method:
The sample volumes were adjusted by the total protein amount. Protein assay was performed by Bio-Rad Protein Assay (Bio-Rad Laboratories, Inc. Hercules, Calif.). The samples were resolved by the standard SDS-polyacrylamide gel electrophoresis and transferred to nitrocellulose membrane (Amersham Biosciences, Bjorkgatan, Sweden). The membranes were blocked with skim milk, and incubated with primary antibodies at 4° C. overnight and then with secondary antibody conjugated with horse radish peroxidase at room temperature for 2 hrs. The signals were detected by western blot chemiluminescence reagent plus (New England Nuclear Life Science Products, Boston, Mass.).
The effect of the combination treatments on cell death and autophagy was examined in two cell lines other than LNCaP cells.

As for `COc1ccc(C[C@@H](C)[C@@H](C)Cc2ccc(OC)c(OC)c2)cc1OC` [M4N, Tetra-O-methyl nordihyroguaiaretic acid], the “autophagy (LC3B-II in the presence of Baflomycin A1)” value with LC3B-II was “blocks autophagy”. For the same molecule, in data set [1], the “toxicity in clinical trials” value is on record as “fairly nontoxic”. Further, the HIF1α expression result is listed as “did not have much effect” with HIF1α (6 hr exposure to hypoxia) and “reduced HIF1α expression” in the data set on HIF1α (18 hr exposure to hypoxia). Also, in the data set on BNIP3 mRNA, the “BNIP3 mRNA expression” value was “suppressed the increase of BNIP3 mRNA expression”.

As to `CN[C@@H]1C[C@H]2O[C@@](C)([C@@H]1OC)n1c3ccccc3c3c4c(c5c6ccccc6n2c5c31)C(=O)N[C@H]4O` [UCN-01, 7-hydroxystaurosporine], the caspase-7 cleavage entry with caspase-7 is “detected”.
